The record followed here is patent US8283373B2, “Inhibitors of cytosolic phospholipase A2” (Pfizer Inc., priority 2005, dated 2012).

The target in one assay is T1, cPLA2α (Homo sapiens, UniProt P47712).
T1 sequence (P47712 1-749): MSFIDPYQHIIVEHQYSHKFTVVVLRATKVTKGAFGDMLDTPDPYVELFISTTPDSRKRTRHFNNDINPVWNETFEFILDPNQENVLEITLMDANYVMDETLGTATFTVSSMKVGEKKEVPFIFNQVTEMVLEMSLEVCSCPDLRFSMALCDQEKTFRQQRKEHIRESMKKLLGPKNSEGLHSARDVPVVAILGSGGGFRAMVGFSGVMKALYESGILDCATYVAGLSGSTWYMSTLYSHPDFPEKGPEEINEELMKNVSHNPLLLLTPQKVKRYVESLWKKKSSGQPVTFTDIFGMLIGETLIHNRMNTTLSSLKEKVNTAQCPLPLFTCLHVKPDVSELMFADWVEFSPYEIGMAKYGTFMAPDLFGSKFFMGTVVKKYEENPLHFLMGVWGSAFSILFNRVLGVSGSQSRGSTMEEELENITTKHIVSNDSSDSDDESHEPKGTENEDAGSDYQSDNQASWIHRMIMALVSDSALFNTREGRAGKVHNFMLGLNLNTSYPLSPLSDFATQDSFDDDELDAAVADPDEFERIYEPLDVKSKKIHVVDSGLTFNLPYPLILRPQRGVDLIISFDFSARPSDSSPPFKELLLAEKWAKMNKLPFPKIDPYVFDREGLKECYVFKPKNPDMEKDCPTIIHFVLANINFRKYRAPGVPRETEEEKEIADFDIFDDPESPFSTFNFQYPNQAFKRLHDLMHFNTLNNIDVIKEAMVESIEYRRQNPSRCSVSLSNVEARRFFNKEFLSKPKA
Nature of the assay: GLU Micelle Assay. It counts as biochemical. Here is the method: The assay was carried in a 96-well format using a fluorescent plate reader with a 355 nm excitation filter and a 460 nm emission filter (Lab Systems Fluoroscan II, Helsinki, Finland). The assay buffer contained 940 μM Triton X-100, 50 mM Hepes pH 7.4, 0.3 mM EDTA, 1 mM CaCl2 and 300 mM KCl. DTPC (1,2-O-tetradecyl-sn-glycero-3-phosphocholine, Avanti) at a final concentration of 120 μM was added the day of the experiment and GLU (7-Hydroxycoumarinyl-γ-linolenate, Biomol Research Lab, Inc.) at a final concentration of 90 μM was added immediately prior to each assay.
Compounds (10 μL) dissolved in DMSO were placed in duplicate wells of a black 96-well plate. Wells corresponding to the positive and negative controls contained DMSO without inhibitors. Just prior to the experiment, 200 μL assay buffer containing 90 μM GLU and 120 μM DTPC was added to all wells in the assay plate. Assay buffer (50 μL) was added to the negative, and 50 μL cPLA2α solution ([…] in assay buffer) was added to all other wells to initiate the reaction. The final concentration of enzyme was 1 μg/ml. The content of each well was mixed gently during the addition of the enzyme, and the plate was rapidly transferred to the fluorescent plate reader. The increase in fluorescence was read every 4 min for 84 min. The slope of the resulting line was determined and the inhibition was calculated using the equation below: Percent Inhibition=[1−(slope with inhibitor−slope negative control)/(slope positive control−slope negative control)]×100 Rat Whole Blood Assay

The subject of a further assay is TXB2. Nature of the assay: Rat Whole Blood Assay (A23187-stimulated TXB2). It is filed as cell-based. Conditions: A23187 5 μM. As for the experimental part:
Fresh blood was collected in heparinized tubes by cardiac puncture of male Sprague-Dawley rats. Aliquots of blood (0.6 mL) were incubated with either 6 μL solvent (DMSO), or 6 μL of test compounds at various concentrations for 15 minutes at 37° C. This was followed by incubation of the blood with 6 μL of calcium ionophore, A23187 (Sigma C-7522) diluted in DMSO for 10 min at 37° C. The final concentration of A23187 was 5 μM. DMSO (6 μL) was added in the unstimulated controls. The reactions were stopped by mixing 60 μL cold EDTA to give a final concentration of 20 mM. The blood was centrifuged at 6,500 rpm for 10 min on a microcentrifuge to obtain plasma. A 70 μL aliquot of plasma was mixed with 400 μL cold methanol for protein precipitation. After incubation at −80° C. for 30 min, the supernatant was obtained by centrifuging at 6,500 rpm for 10 min, and was assayed for TXB2 according to the manufacturer's procedure (Assay Designs, Inc.'s ELISA kit #900-002).

Take `O=C(O)c1ccc(OCCc2c(CCNS(=O)(=O)Cc3c(F)cccc3C(F)(F)F)n(C(c3ccccc3)c3ccccc3)c3ccc(Cl)cc23)cc1` [Example 6, 4-(2-{5-chloro-1-(diphenylmethyl)-2-[2-({[2-fluoro-6-(trifluoromethyl)benzyl]sulfonyl}amino)ethyl]-1H-indol-3-yl}ethoxy)benzoic acid]: the values for the IC50 at cPLA2α and with TXB2 (Rattus norvegicus) were 0.092 µM and 0.08 µM, respectively.

`Cc1c(Cl)ccc(F)c1CS(=O)(=O)NCCc1c(CCCc2ccc(C(=O)O)cc2)c2cc(Cl)ccc2n1C(c1ccccc1)c1ccccc1` [Example 26]: the figures for the IC50 against cPLA2α and with TXB2 were 0.022 µM and 0.03 µM, respectively.

Take `O=C(O)c1ccc(CCCc2c(CCNS(=O)(=O)Cc3ccccc3-c3ccsc3)n(C(c3ccccc3)c3ccccc3)c3ccc(Cl)cc23)cc1` [Example 32, 4-(3-{5-chloro-1-(diphenylmethyl)-2-[2-({[2-(3-thienyl)benzyl]sulfonyl}amino)ethyl]-1H-indol-3-yl}propyl)benzoic acid]: the IC50 on cPLA2α is 0.013 µM; in the assay on TXB2 (Rattus norvegicus) it was 0.05 µM.

With `O=C(O)c1ccc(CCCc2c(CCNS(=O)(=O)Cc3ccccc3-c3ccccc3OC(F)(F)F)n(C(c3ccccc3)c3ccccc3)c3ccc(Cl)cc23)cc1` [Example 36, 4-[3-(5-chloro-1-(diphenylmethyl)-2-{2-[({[2′-(trifluoromethoxy)biphenyl-2-yl]methyl}sulfonyl)amino]ethyl}-1H-indol-3-yl)propyl]benzoic acid], the half-inhibitory concentration (IC50) against cPLA2α was determined as 0.031 µM; in the assay with TXB2 (Rattus norvegicus), 0.07 µM.

As to `O=C(O)c1ccc(OCCc2c(CCNS(=O)(=O)Cc3ccccc3O)n(C(c3ccccc3)c3ccccc3)c3ccc(Cl)cc23)cc1` [Example 2, 4-{2-[5-chloro-1-(diphenylmethyl)-2-(2-{[(2-hydroxybenzyl)sulfonyl]amino}ethyl)-1H-indol-3-yl]ethoxy}benzoic acid], the 50% inhibitory concentration (IC50) amounted to 0.19 µM against cPLA2α and 0.12 µM in the assay with TXB2 (Rattus norvegicus).

Turning to `O=C(O)c1ccc(CCCc2c(CCNS(=O)(=O)Cc3ccccc3F)n(C(c3ccccc3)c3ccccc3)c3ccc(Cl)cc23)cc1` [Example 28, 4-{3-[5-chloro-1-(diphenylmethyl)-2-(2-{[(2-fluorobenzyl)sulfonyl]amino}ethyl)-1H-indol-3-yl]propyl}benzoic acid], the concentration for half-maximal inhibition (IC50) against cPLA2α and with TXB2 (Rattus norvegicus) was 0.03 µM in each case.

Take `O=C(O)c1ccc(OCCc2c(CCNS(=O)(=O)Cc3ccccc3OCc3ccccc3)n(C(c3ccccc3)c3ccccc3)c3ccc(Cl)cc23)cc1` [Example 1, 4-{2-[2-[2-({[2-(benzyloxy)benzyl]sulfonyl}amino)ethyl]-5-chloro-1-(diphenylmethyl)-1H-indol-3-yl]ethoxy}benzoic acid]: the figures for the concentration for half-maximal inhibition (IC50) against cPLA2α and in the assay with TXB2 (Rattus norvegicus) were 0.26 µM and 0.14 µM, respectively.

As to `Cc1cccc([N+](=O)[O-])c1CS(=O)(=O)NCCc1c(CCCc2ccc(C(=O)O)cc2)c2cc(Cl)ccc2n1C(c1ccccc1)c1ccccc1` [Example 9], the IC50 against cPLA2α turned out to be 0.022 µM; in the assay with TXB2, 0.02 µM.

In the case of `CN1CCN(Cc2ccccc2CS(=O)(=O)NCCc2c(CCCc3ccc(C(=O)O)cc3)c3cc(Cl)ccc3n2C(c2ccccc2)c2ccccc2)CC1` [Example 22, 4-[3-(5-chloro-1-(diphenylmethyl)-2-{2-[({2-[(4-methylpiperazin-1-yl)methyl]benzyl}sulfonyl)amino]ethyl}-1H-indol-3-yl)propyl]benzoic acid], the IC50 against cPLA2α was 0.021 µM; in the assay with TXB2 (Rattus norvegicus), 0.08 µM.

Take `O=C(O)c1ccc(CCCc2c(CCNS(=O)(=O)Cc3ccccc3-c3cccnc3)n(C(c3ccccc3)c3ccccc3)c3ccc(Cl)cc23)cc1` [Example 31, 4-{3-[5-chloro-1-(diphenylmethyl)-2-(2-{[(2-pyridin-3-ylbenzyl)sulfonyl]amino}ethyl)-1H-indol-3-yl]propyl}benzoic acid]: the values for the IC50 on cPLA2α and with TXB2 (Rattus norvegicus) were 0.016 µM and 0.04 µM, respectively.

For orientation: IC50 means the midpoint of a concentration-inhibition curve. The low end stands for greater potency in that assay, the high end for weaker potency in that assay.
